The results in this text go back to ChEMBL document CHEMBL1201862, “PubChem BioAssay data set” (2004).

Assay [1] concerns the target Glucose-6-phosphate 1-dehydrogenase (Homo sapiens, UniProt P11413). Put plainly: human G6PD enzyme inhibitors, dose response, selectivity assay for P. falciparum G6PD inhibitor project, biochemical, fluorescence (AID 504792). In kind it is functional.
A further assay addresses Beta-galactosidase (Escherichia coli, UniProt Q8VNN2). Put plainly: beta-galactosidase enzyme inhibitors and activators, dose response, artefact control for CCR6 antagonist project, biochemical, E. coli enzyme, set 3 (AID 504712). The class given is functional.
The test system of another assay is CHO. The experiment in a line: cytotoxicity in TLR9-MyD88 CHO cells, dose response, cytotoxicity control for TLR9-MyD88 binding inhibitor project, cell-based, luminescence (AID 588339).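 Note: CHO cells stably coexpressing TLR9 and MyD88 fusions from primary screen; compound exposure lasted 48 hours before viability readout.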 To be noted: Cricetulus griseus. In kind it is functional, hamster.
Assay [2] addresses Heat shock protein HSP 90-alpha (Homo sapiens, UniProt P07900). In kind it is functional, organism-based.
Another assay deals with Vero. Put plainly: Vero cell cytotoxicity, cytotoxicity control for flavivirus capping enzyme inhibitors (AID 588742). To be noted: Chlorocebus sabaeus. In kind it is functional.
For assay [3], the target named is T1, Beta Lactamase (Pseudomonas aeruginosa, UniProt Q932Y6). Put plainly: beta-lactamase reporter inhibitor potency, dose response, artefact control for TLR9-MyD88 binding inhibitor project, BLA reporter cells, FRET fluorescence (AID 588341).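 Note: cell based assay in CHO-K1 cells stably expressing beta-lactamase.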 In kind it is cell-based.
T1 sequence (Q932Y6 whole entry): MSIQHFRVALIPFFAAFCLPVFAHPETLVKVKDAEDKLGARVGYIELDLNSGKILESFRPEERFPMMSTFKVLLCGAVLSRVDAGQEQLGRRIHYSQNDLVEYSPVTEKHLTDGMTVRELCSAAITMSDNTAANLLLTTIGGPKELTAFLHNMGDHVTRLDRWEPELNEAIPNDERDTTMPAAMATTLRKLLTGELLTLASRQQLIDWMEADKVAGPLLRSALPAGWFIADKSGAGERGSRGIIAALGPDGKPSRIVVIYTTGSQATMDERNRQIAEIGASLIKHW
In a further assay the target is Genome polyprotein (dengue virus type 2, UniProt P29990). The experiment in a line: Dengue-2 NS5 methyltransferase inhibitors, primary screen, biochemical, confirmation dose response (AID 588689). The class given is functional.
Sequence of Genome polyprotein (P29990 2492-3391 limits assumed): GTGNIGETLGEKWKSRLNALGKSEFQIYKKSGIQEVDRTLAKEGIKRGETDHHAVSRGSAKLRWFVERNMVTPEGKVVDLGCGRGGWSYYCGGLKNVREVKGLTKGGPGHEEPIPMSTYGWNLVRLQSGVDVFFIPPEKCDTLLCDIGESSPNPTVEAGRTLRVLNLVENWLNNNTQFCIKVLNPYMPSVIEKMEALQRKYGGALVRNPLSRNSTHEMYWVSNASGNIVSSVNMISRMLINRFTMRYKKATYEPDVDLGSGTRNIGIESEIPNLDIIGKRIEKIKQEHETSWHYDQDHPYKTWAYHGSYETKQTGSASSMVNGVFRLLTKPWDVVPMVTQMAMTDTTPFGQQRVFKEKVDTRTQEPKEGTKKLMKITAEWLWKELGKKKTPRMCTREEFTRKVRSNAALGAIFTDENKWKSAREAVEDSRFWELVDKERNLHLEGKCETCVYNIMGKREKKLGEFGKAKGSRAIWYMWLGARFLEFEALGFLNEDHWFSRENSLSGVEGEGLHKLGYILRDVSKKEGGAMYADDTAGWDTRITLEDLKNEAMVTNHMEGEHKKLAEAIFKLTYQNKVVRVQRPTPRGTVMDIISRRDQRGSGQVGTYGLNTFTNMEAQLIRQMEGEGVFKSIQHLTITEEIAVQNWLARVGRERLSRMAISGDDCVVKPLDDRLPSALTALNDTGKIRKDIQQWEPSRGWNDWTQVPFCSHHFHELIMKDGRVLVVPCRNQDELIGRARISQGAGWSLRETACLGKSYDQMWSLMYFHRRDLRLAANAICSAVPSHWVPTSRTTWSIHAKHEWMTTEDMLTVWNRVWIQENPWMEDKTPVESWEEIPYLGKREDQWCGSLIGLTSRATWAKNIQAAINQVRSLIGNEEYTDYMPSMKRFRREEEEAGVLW
Assay [4] in a line: Fluorescence-based cell-based high throughput dose response assay for inhibitors of the interaction of nucleotide-binding oligomerization domain containing 2 (NOD2) and the receptor-interacting serine-threonine kinase 2 (RIPK2). The class given is functional. To be noted: Homo sapiens.
For assay [5], the target named is T1, Beta Lactamase. Put plainly: beta-lactamase reporter inhibitor potency, dose response, artefact control for NOD2-RIPK2 interaction inhibitor project, BLA reporter cells, FRET fluorescence (AID 651552). In kind it is functional, cell-based.
The target in another assay is Paired box protein Pax-8 (Homo sapiens, UniProt Q06710). The experiment in a line: inhibitors of PAX8-driven TPO luciferase reporter, dose response, RMG-I cells, cherry-pick (AID 687027).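 Note: luciferase reporter driven by Pax8 target thyroperoxidase promoter measured by SteadyGlo luminescence.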 In kind it is functional, cell-based. For orientation: A reporter such as luciferase makes a cellular process visible.
Sequence of Paired box protein Pax-8 (Q06710 whole entry): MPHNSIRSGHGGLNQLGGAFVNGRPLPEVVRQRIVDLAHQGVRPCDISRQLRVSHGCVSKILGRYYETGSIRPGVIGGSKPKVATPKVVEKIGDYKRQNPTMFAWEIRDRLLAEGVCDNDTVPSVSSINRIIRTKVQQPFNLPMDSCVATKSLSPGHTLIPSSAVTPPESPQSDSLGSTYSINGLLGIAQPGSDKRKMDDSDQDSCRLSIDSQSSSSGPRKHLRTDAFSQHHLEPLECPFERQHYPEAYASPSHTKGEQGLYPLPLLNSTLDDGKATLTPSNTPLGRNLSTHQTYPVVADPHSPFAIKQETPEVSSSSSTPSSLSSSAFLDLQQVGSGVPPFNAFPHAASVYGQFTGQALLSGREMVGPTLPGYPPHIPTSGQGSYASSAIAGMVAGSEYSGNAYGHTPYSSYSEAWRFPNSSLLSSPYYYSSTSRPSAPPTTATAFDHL
Assay [6] can be described thus: non-specific cell cytotoxicity, dose response, cytotoxicity control for PAX8 inhibitor project, plate reader, dry powder samples (AID 743021). In kind it is functional, cell-based.
Another assay deals with T2, Protein Tat (Human immunodeficiency virus type 1 group M subtype B (isolate HXB2)(HIV-1), UniProt P04608).
T2 sequence (P04608 whole entry): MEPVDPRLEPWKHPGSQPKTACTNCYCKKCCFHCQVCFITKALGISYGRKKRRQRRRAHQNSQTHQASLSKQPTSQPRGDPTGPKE
The class given is functional.

Assay [7] can be described thus: THP-1 cell cytotoxicity, dose response, cytotoxicity control for Vif-APOBEC3G degradation inhibitor project, THP-1 cells (AID 1117359). The settings on record: Human immunodeficiency virus 1, THP-1. The class given is functional.
A further assay addresses T3, Caspase-3 (Homo sapiens, UniProt P42574).
T3 sequence (P42574 whole entry): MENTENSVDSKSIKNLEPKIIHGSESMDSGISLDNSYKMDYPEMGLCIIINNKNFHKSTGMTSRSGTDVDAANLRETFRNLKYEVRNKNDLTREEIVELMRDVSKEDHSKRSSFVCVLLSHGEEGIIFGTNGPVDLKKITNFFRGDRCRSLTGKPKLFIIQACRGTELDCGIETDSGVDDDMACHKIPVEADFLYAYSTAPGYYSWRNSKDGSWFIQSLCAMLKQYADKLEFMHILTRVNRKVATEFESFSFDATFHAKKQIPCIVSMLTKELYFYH
In kind it is functional.

The target of assay [8] is T4, Sentrin-specific protease 7 (Homo sapiens, UniProt Q9BQF6).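 Note: Luminescence-based dose-response confirmation of ultra-high-throughput screening hits, measuring inhibition of SENP7.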
T4 sequence (Q9BQF6 whole entry): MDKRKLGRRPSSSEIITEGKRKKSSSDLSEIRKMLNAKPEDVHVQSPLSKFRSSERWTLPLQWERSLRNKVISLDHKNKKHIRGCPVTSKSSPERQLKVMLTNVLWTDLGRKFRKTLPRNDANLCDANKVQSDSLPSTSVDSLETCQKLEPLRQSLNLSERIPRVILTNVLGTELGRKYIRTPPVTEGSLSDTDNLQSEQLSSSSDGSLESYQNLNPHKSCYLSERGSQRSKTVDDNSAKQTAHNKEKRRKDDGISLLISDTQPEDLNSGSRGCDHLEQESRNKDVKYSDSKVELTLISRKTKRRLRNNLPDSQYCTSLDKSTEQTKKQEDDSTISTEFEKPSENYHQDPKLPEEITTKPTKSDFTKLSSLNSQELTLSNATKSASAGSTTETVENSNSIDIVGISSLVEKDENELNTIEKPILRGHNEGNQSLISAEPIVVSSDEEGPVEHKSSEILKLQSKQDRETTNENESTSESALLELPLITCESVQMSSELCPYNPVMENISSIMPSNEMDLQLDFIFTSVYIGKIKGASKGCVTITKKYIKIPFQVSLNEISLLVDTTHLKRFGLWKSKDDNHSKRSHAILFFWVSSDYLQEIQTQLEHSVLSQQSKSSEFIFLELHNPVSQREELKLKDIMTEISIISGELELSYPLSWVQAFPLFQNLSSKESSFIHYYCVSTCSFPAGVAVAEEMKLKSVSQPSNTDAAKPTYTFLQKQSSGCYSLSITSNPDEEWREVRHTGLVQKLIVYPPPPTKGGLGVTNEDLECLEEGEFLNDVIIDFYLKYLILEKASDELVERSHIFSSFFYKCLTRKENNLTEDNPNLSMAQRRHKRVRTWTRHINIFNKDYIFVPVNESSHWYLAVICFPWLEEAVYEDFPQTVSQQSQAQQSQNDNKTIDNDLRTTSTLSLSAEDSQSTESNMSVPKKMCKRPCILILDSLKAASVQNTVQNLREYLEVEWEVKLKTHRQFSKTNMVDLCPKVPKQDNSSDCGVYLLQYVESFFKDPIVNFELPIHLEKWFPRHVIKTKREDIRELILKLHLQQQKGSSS
The class given is functional.

In assay [9] the target is T5, Sentrin-specific protease 6 (Homo sapiens, UniProt Q9GZR1).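 Note: Luminescence-based dose-response confirmatory assay of SENP6 inhibition, following up an ultra-high-throughput screen.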
T5 sequence (Q9GZR1 whole entry): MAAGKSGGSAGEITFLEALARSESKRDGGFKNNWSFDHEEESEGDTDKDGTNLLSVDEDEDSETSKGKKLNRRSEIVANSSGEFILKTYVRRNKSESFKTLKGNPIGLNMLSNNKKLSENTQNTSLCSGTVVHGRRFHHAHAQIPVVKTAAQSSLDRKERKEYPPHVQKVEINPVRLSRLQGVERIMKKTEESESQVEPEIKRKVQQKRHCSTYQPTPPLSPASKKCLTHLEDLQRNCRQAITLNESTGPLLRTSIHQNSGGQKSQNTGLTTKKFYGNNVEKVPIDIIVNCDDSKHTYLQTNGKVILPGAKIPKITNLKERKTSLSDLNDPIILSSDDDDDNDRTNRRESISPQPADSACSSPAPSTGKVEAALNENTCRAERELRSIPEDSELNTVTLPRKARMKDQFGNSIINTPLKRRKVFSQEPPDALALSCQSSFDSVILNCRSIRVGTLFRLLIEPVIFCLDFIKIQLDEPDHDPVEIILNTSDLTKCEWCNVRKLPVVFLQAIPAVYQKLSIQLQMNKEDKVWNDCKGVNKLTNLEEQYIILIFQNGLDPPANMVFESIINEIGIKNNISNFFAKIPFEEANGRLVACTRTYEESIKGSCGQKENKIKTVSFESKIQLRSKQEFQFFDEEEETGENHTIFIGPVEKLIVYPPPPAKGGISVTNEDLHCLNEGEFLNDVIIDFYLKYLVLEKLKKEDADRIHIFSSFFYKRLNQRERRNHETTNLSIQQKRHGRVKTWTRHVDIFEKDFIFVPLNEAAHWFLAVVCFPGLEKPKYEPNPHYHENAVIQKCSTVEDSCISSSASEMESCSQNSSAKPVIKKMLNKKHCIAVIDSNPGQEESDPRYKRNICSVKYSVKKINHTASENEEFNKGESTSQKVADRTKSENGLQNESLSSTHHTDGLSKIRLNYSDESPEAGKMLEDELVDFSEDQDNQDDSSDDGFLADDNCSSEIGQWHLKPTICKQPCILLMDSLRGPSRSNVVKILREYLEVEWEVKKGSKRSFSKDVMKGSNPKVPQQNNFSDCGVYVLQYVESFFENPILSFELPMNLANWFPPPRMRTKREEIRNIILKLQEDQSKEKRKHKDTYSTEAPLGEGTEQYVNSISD
In kind it is functional.

The target of assay [10] is T6, Sentrin-specific protease 8 (Homo sapiens, UniProt Q96LD8).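 Note: luminescence read-out of SENP8 inhibition, dose-response confirmation following an ultra-high-throughput screen.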
T6 sequence (Q96LD8 whole entry): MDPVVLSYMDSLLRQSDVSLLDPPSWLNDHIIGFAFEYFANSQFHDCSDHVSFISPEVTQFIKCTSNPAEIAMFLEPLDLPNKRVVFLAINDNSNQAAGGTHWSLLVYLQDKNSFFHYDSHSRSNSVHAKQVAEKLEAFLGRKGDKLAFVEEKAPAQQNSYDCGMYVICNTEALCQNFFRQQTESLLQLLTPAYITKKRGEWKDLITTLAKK
The class given is functional.

Assay [11] has as its target T7, Endoribonuclease toxin MazF (Escherichia coli K-12, UniProt P0AE70).
T7 sequence (P0AE70 whole entry): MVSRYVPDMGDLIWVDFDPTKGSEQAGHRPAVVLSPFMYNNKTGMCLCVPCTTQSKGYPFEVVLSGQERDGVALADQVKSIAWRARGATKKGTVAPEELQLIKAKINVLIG
The experiment in a line: MazF toxin RNase activators, dose response, biochemical, fluorescence, single-stranded RNA substrate, uHTS hits (AID 588481). In kind it is functional.

The target in assay [12] is T7, Endoribonuclease toxin MazF. The experiment in a line: fluorescent RNA oligo signal without MazF, dose response, counter-screen for MazEF activator project, biochemical, fluorescence, single-stranded RNase substrate (AID 588502). The class given is functional.
The nature of assay [13]: Luminescence-based cell-based high throughput dose response assay to identify activators of the DAF-12 from the parasite S. stercoralis (ssDAF-12). The class given is functional.
The target in assay [14] is T8, Oxysterols receptor LXR-beta (Homo sapiens, UniProt P55055).
T8 sequence (P55055 whole entry): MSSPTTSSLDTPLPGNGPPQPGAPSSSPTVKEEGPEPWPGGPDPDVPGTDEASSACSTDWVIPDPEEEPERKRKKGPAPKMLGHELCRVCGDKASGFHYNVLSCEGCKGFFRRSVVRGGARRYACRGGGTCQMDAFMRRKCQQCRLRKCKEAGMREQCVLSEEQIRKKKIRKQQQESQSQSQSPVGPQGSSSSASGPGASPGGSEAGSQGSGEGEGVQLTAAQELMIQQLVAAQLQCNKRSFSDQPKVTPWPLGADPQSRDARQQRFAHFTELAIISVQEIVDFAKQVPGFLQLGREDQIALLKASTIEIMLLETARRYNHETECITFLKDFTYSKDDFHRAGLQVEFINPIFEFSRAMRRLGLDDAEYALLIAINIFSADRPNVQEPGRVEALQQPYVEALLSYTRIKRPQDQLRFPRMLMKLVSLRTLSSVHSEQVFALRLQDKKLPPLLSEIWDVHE
The experiment in a line: LXR agonists, Gal4 luciferase reporter, dose response, counter-screen for ssDAF-12 agonist project, cell-based, luminescence, HEK293, S. stercoralis campaign (AID 720737). The class given is functional. To be noted: read-out: IC50 (the source's name).

In assay [15] the target is T8, Oxysterols receptor LXR-beta. In kind it is functional, cell-based.
The target is the same in assay [16]. The class given is functional, cell-based. The source holds these as a separate data set.
Assay [17] is described as follows: HeLa cell cytotoxicity, dose response, cytotoxicity control, 24 h, plate reader, dry powder (AID 686928). The class given is functional, cell-based.

Calls of active or inactive are those of the source.

Sequence of Beta-galactosidase (Q8VNN2 whole entry, the tested form may be a part): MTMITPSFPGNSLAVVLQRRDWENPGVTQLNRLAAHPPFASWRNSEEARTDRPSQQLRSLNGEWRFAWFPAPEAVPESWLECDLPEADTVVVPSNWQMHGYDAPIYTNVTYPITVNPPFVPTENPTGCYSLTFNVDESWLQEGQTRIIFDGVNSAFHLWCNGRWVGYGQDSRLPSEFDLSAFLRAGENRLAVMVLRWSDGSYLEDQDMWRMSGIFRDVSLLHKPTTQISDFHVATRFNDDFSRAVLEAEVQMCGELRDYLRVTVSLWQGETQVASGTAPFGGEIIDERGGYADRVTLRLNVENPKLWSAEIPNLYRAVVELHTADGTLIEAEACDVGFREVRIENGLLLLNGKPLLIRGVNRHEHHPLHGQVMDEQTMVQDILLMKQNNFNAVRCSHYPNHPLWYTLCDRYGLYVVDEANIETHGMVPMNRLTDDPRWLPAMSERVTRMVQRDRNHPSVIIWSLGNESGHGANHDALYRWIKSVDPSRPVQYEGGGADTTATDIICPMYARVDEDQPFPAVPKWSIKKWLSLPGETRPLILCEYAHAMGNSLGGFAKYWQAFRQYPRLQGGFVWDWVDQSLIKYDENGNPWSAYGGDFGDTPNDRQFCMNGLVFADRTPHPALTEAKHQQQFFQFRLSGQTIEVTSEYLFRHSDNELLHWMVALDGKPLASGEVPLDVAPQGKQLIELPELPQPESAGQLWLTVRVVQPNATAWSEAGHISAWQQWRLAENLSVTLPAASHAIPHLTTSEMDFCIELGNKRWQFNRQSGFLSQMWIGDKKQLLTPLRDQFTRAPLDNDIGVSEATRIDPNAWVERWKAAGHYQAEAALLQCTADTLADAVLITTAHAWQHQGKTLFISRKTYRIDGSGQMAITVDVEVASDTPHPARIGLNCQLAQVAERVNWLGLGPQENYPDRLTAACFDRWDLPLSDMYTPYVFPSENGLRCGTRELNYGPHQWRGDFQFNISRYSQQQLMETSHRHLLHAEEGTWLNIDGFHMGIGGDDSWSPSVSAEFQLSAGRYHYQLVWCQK
Sequence of Glucose-6-phosphate 1-dehydrogenase (P11413 whole entry): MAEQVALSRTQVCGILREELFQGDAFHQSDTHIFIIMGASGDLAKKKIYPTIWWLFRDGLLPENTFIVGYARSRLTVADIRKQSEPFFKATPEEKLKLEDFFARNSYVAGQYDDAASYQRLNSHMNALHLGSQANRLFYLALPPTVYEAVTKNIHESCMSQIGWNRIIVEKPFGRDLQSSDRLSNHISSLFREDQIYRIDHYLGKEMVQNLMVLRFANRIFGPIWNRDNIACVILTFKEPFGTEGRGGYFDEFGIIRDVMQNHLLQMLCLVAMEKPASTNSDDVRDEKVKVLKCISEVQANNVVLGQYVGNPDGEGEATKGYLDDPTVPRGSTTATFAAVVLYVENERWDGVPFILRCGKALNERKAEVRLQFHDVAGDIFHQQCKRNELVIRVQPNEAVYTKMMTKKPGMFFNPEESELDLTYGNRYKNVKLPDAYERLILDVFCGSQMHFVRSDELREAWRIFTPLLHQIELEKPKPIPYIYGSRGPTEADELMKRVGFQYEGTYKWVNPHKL

On to `CC1=C(O)C(=O)C=C2C1=CC=C1C2(C)CCC2(C)C3CC(C)(C(=O)O)CCC3(C)CCC12C` (stereo not given), for which the IC50 – broadly, the concentration at which inhibition is half-maximal – in assay [1] is > 80 µM (inactive); at Beta-galactosidase it was > 66.6 µM (inactive); in the assay on CHO, 619 nM (active); on Beta Lactamase [3], 21.4 µM (inactive); at Genome polyprotein, 19.7 µM (active); in assay [4], 205 nM (active). For the same molecule, the IC50 is 38.1 µM (inactive) on Beta Lactamase [5] and > 100 µM (active) at Protein Tat. Further, the AC50 (commonly the midpoint of the concentration-response curve, whichever way the signal moves) in assay [2] was 1.41 µM (active); at Paired box protein Pax-8, 2.41 µM (active); in assay [6], 26.1 µM (active). The CC50 (as a rule, the concentration at which the toxic effect on the cells reaches its halfway point) is 1.43 µM (active) in the assay with Vero and 1.01 µM (active) in assay [7].

In the case of `C(=N\NC1=Nc2cccc3cccc1c23)/c1ccccc1`, the IC50 at Caspase-3 is 30.1 µM (active); in assay [8], 5.42 µM (active); in assay [9] it was > 100 µM (inactive); in assay [10] it was > 100 µM (inactive); in assay [13], > 67.5 µM (inactive). The EC50 in [11] is > 99 µM (inactive); in assay [12], > 99 µM (inactive); in assay [14], > 67.5 µM (inactive); in [15] it was > 67.5 µM (inactive); in assay [16] it was > 67.5 µM (inactive); in the assay “cells”, > 67.5 µM (inactive).

For `O=C1C(=O)N(Cc2cccc(Cl)c2)c2ccccc21`, the AC50 in assay [17] was 124 µM (active).
